Laboratory results from patent US20230172940A1, “METHODS OF EXTENDING LIFESPAN BY ADMINISTERING FERROPTOSIS INHIBITORS” (COLLABORATIVE MEDICINAL DEVELOPMENT, LLC, priority 2020, published 2023).

Tested on: iron
Assay: X-ray fluorescence microscopy, elemental mapping of iron
Assay type: in vivo, Caenorhabditis elegans
Design: areal density of iron, Mean Diff. / total body iron, 75% Percentile / total body iron, Maximum / total body iron, Mean / total body iron, Minimum / total body iron, 25% Percentile / total body iron, Median / total body iron, Mean Diff.: unit not given here
Details: for areal density iron, 25% Percentile / areal density iron, 75% Percentile / areal density iron, Maximum / areal density iron, Mean / areal density iron, Median / areal density iron, Minimum / total body iron, 25% Percentile / total body iron, 75% Percentile / total body iron, Maximum / total body iron, Mean / total body iron, Median / total body iron, Minimum: 250 μM SIH or 200 μM Lip-1; for areal density of iron with aging: Tables 11 and 12; for total body iron, 25% Percentile / total body iron, 75% Percentile / total body iron, Maximum / total body iron, Mean / total body iron, Median / total body iron, Minimum: per worm
Protocol: Specimens were prepared for XFM using previously described protocols. Briefly, adult C. elegans were removed from NGM, washed four times in excess S-basal (0.1 M NaCl; 0.05 M KHPO4 at pH 6.0), briefly in ice-cold 18 MΩ resistant de-ionized H2O (Millipore) and twice in ice-cold CH3COONH4 (1.5% w/v). Samples were transferred onto 0.5 μm-thick silicon nitride (Si3N4) window (Silson), excess buffer wicked away and then the slide was frozen in liquid nitrogen (N2)-chilled liquid propane using a KF-80 plunge freezer (Leica Microsystems). The samples were lyophilised overnight at −40° C. and stored under low vacuum until required.
The distribution of metals was mapped at the X-ray Fluorescence Microscopy beamline at the Australian Synchrotron using the Maia detector system. The distribution of elements with atomic number<37 were mapped using an incident beam of 15.6 keV X-rays. This incident energy allowed clear separation of X-ray fluorescence (XRF) peaks from the relatively intense elastic and inelastic scatter. The incident beam (^˜1.71×10^9 photons s^−1) was focussed to approximately 2×2 μm^2(H×V, FWHM) in the sample plane and the specimen was continuously scanned through focus (1 mm sec^−1). The resulting XRF was binned in 0.8 jim intervals in both the horizontal and vertical giving virtual pixels spanning 0.64 jim^2 of the specimen probed with a dwell time of […]. XRF intensity was normalized to the incident beam flux monitored with a nitrogen filled ionization chamber with a 27 cm path length placed upstream of the focusing optics. Three single-element thin metal foils of known areal density (Mn 18.9 jig cm^−2, Fe 50.1 jig cm^−2 and Pt 42.2 jig cm^−2, Micromatter, Canada) were used to calibrate the relationship between fluorescence flux at the detector and elemental abundance. Dynamic Analysis, as implemented in GeoPIXE 7.3 (CSIRO), was used to deconvolve the full XRF spectra at each pixel in the scan region to produce quantitative elemental maps. This procedure includes a correction for an assumed specimen composition and thickness, in this case 30 jim of cellulose. Though unlikely to exactly match the actual sample characteristics, deviations from these assumptions are not significant for the results presented in this study as the effects of beam attenuation and self-absorption on calcium and iron XRF are negligible for a dried specimen of this type and size.
Analysis of elemental XRF maps was performed using a combination of tools native to GeoPIXE and ImageJ. Incident photons inelastically scattered (Compton scatter) from the sample detail the extent and internal structure of individual C. elegans. The differential scattering power of the specimens and substrate allowed individual animals (or parts thereof) to be identified as regions of interest (ROI) facilitating analysis of elemental content on a ‘per worm’ basis. This segmentation of each elemental map was achieved using the histogram of pixel intensities from Compton maps to locate the clusters within the image. ROIs composed of <10,000 pixels were deemed to be so small that their elemental content was not reflective of the elemental content of whole animals and so these were excluded from the analysis. The ‘non-worm’ region of each scan was used to calculate the value specimen elemental content was distinguishable from background noise, i.e. the critical value. The background corrected elemental maps were used to establish the areal densities and the total mass of each element associated with individual ROIs.

[1] = Day 4 Control vs. Day 4 treated (control minus treated)
[2] = Day 4 treated vs. Day 8 treated, same treatment
[3] = Day 8 Control vs. Day 8 treated (control minus treated)

| SMILES | areal density iron, 25% Percentile (Day 4) [pg μm^−2] | areal density iron, 75% Percentile (Day 4) [pg μm^−2] | areal density iron, Maximum (Day 4) [pg μm^−2] | areal density iron, Mean (Day 4) [pg μm^−2] | areal density iron, Median (Day 4) [pg μm^−2] | areal density iron, Minimum (Day 4) [pg μm^−2] | areal density of iron, Mean Diff. [1] | total body iron, Mean Diff. [1] | areal density of iron, Mean Diff. [2] | total body iron, Mean Diff. [2] | areal density iron, 25% Percentile (Day 8) [pg μm^−2] | areal density iron, 75% Percentile (Day 8) [pg μm^−2] | areal density iron, Maximum (Day 8) [pg μm^−2] | areal density iron, Mean (Day 8) [pg μm^−2] | areal density iron, Median (Day 8) [pg μm^−2] | areal density iron, Minimum (Day 8) [pg μm^−2] | areal density of iron, Mean Diff. [3] | total body iron, Mean Diff. [3] | areal density of iron with aging | total body iron, 25% Percentile (Day 4) | further results |
| --- | --- | --- | --- | --- | --- | --- | --- | --- | --- | --- | --- | --- | --- | --- | --- | --- | --- | --- | --- | --- | --- |
| O=C(N/N=C/c1ccccc1O)c1ccncc1 [SIH, Salicylaldehyde isonicotinoyl hydrazone] | 298.3 | 357.3 | 412.1 | 321.8 | 304.4 | 267.1 | 344.4 | 57.71 | −112.9 | −70.26 | 381.9 | 501.9 | 558 | 434.7 | 408.9 | 324.2 | 385.6 | 15.8 | dramatically reduced | 61.28 | areal density of iron, Mean Diff. (Day 4 SIH vs. Day 4 Lip-1): −376.6; total body iron, Mean Diff. (Day 4 SIH vs. Day 4 Lip-1): −44.97; total iron load (Day 8): on par with the untreated control group; areal density of iron, Mean Diff. (Day 8 SIH vs. Day 8 Lip-1): −389.9; total body iron, Mean Diff. (Day 8 SIH vs. Day 8 Lip-1): −26.49; total body iron, 75% Percentile (Day 4): 71.8; total body iron, Maximum (Day 4): 98.92; total body iron, Mean (Day 4): 68.37; total body iron, Median (Day 4): 66.78; total body iron, Minimum (Day 4): 41.07; total body iron, 25% Percentile (Day 8): 117.5; total body iron, 75% Percentile (Day 8): 169.5; total body iron, Maximum (Day 8): 202; total body iron, Mean (Day 8): 138.6; total body iron, Median (Day 8): 127.5; total body iron, Minimum (Day 8): 74.16 |
| Clc1cccc(CNC2=Nc3ccccc3NC23CCNCC3)c1 [Lip-1, N-[(3-chlorophenyl)methyl]-spiro[piperidine-4,2′(1′H)-quinoxalin]-3′-amine] | 630.3 | 732.2 | 851.8 | 698.5 | 711.4 | 590.5 | −32.28 | 12.74 | −123.1 | −51.79 | 726.5 | 892.4 | 1143 | 821.6 | 800.5 | 644 | −1.229 | −10.7 | did not alter iron density | 91.34 | total body iron, 75% Percentile (Day 4): 129.5; total body iron, Maximum (Day 4): 148.6; total body iron, Mean (Day 4): 113.3; total body iron, Median (Day 4): 114.6; total body iron, Minimum (Day 4): 71.51; total body iron, 25% Percentile (Day 8): 128.9; total body iron, 75% Percentile (Day 8): 189.6; total body iron, Maximum (Day 8): 277.9; total body iron, Mean (Day 8): 165.1; total body iron, Median (Day 8): 157.2; total body iron, Minimum (Day 8): 100 |
